Assay results published in patent publication EP2029580B1, “NOVEL INDOL-PYRROL DERIVATIVES FOR THE TREATMENT OF PROLIFERATIVE AND INFLAMMATORY DISEASES” (ScheBo Biotech AG, priority 2006, dated 2007).
Where two headings read alike, the source gives them in different places. Blank lines part the entries; values can stand above or below the compound they belong to.

Key:
Brusttumormodell = experiment: Colony assay in soft agar, breast tumour model; assay type: cell-based, menschlichen; settings: least sensitive model
Description: (§1) Im Kolonie-Assay werden Tumorstammzellen von verschiedenen menschlichen Tumorentitäten in Softagar kultiviert und die Ausbildung von Tumorkolonien in An- und Abwesenheiten von der erfindungsgemäßen Substanz (Beispiel 2.1, ggf. als Malat der Beispiel 2.2 oder 2.3) ausgezählt. Insgesamt wurde die Substanz an 25 verschiedenen Tumormodellen getestet. Zu den Tumormodellen gehörten Colon-, Pankreas- und Magenkarzinome, kleinzellige und nicht kleinzellige Lungentumore, Brust-, Ovar- und Nierenkarzinome sowie Melanome. Das breite Spektrum von verschiedenen Tumorentitäten sowie die große Anzahl von Modellen ermöglichen nach der Zellkultur eine erneute Prüfung der Wirksamkeit der Substanz und geben erste Hinweise darauf, ob die Substanz Wirkungsselektivität für bestimmte Tumorentitäten besitzt.
(§2) Die Ergebnisse sind in der Figur 1 dargestellt (graphische Analyse der Mittelwerte für die Substanz basierend auf den IC70-Werten). Die Balken stellen die IC70-Konzentrationen im Verhältnis zum Mittelwerte aller IC70-Werte dar. Bei Balken nach links ist der IC70-Wert für das betreffende Modell niedriger als der Mittelwert der IC70-Werte aller Modelle, d.h. diese Modelle sind sensitiver im Vergleich zum Durchschnitt aller Modelle. Balken nach rechts bedeuten höhere IC70-Werte als der Durchschnitt der Modelle und damit eine geringere Sensitivität.

[1] = test system: 25 verschiedenen Tumormodellen; experiment: Colony assay in soft agar, 25 tumour models; assay type: cell-based, menschlichen
Description: as §1, §2

[2] = test system: Ovarialkarzinom (OVXF 550); experiment: Colony assay in soft agar, ovarian carcinoma OVXF 550; assay type: cell-based, menschlichen
Description: as §1
Im gleichen Kolonie-Assay und unter gleichen experimentellen Bedingungen wurden für die erfindungsgemäße Substanz (5-[5-Fluoro-2-oxo-1,2-dihydro-indol-(3Z)-ylidenemythyl]-2,4-dimethyl-1H-pyrrole-3-carboxylic acid (2-diethylamino-ethoxy)-amide (vorzugsweise das Salz der Äpfelsäure, Malate) folgende Werte gefunden: OVXF 550: IC50 = […], IC70 = 21,6 µM

KBV-600 = experiment: XTT cell proliferation inhibition, KBV-600; assay type: cell-based; settings: KBV-600 (cultured with 600 ng/ml Vinblastin), without pyruvate in the medium; read-out: IC50 ohne Pyrovat
Description: (§3) Die Substanzen der Beispiele 2.1 bis 2.3 wurden an verschiedenen Zelllinien in An- und Abwesenheit von Pyruvat im Nährmedium auf ihre proliferationshemmende Wirkung getestet. Die Substanzen wurden jeweils in DMSO gelöst. Anschließend wurde der Wirkstoff in acht Konzentrationsintervallen getestet. Der Berechnung der IC50-Werte lagen in jeder Konzentration acht Einzelwertbestimmungen zugrunde. Der IC50-Wert gibt die Wirkstoffkonzentration an, bei der im Vergleich zur Kontrollgruppe, die ausschließlich mit dem Lösungsmittel DMSO behandelt wurde, eine 50%ige Hemmung der Zellproliferation vorlag.

HT-29 = experiment: XTT cell proliferation inhibition, HT-29; assay type: cell-based, humane; settings: read-out: IC50 ohne Pyrovat
Description: as §3

NK1 = experiment: XTT cell proliferation inhibition, NK1; assay type: cell-based, Ratten; settings: NK1, without pyruvate in the medium; read-out: IC50 ohne Pyrovat
Description: as §3

BxPC-3 = experiment: XTT cell proliferation inhibition, BxPC-3; assay type: cell-based, humane
Description: as §3

MCF-7 = experiment: XTT cell proliferation inhibition, MCF-7; assay type: cell-based, humane
Description: as §3

MDA-MB-453 = experiment: XTT cell proliferation inhibition, MDA-MB-453; assay type: cell-based, humane; settings: Homo sapiens
Description: as §3

[3] = test system: nicht kleinzelliges Lungentumormodell; experiment: Colony assay in soft agar, non-small-cell lung tumour model; assay type: cell-based, menschlichen; settings: most sensitive model
Description: as §1, §2

Wi-38 = experiment: XTT cell proliferation inhibition, Wi-38; assay type: cell-based, humane; settings: Homo sapiens; Wi-38, with pyruvate in the medium; read-out: IC50 (XTT) mit Pyrovat
Description: as §3

verschiedenen Zelllinien = experiment: Cell culture proliferation inhibition, summary over all cell lines; assay type: cell-based; settings: span over the cell lines of Table 1; read-out: IC50-Werte
Description: as §3

SMILES: CCN(CC)CCONC(=O)c1c(C)[nH]c(/C=C2\C(=O)Nc3ccc(F)cc32)c1C [Beispiel 2.1, 5-[5-Fluoro-2-oxo-1,2-dihydro-indol-(3Z)-ylidenemethyl]-2,4-dimethyl-1H-pyrrole-3-carboxylic acid (2-diethylamino-ethoxy)-amide]
- IC70-Wert (Brusttumormodell): 40 µM
- IC50 (Brusttumormodell; read-out: höchste IC50-Wert): 30 µM
- Hemmung der Koloniebildung ([1]; all 25 models): Dosis-abhängigen Hemmung der Koloniebildung
- mittlere IC70-Wert ([1]; mean over all 25 tumour models): 20 µM
- IC50 ([1]; mean over all 25 tumour models, read-out: mittlere IC50-Wert): 15 µM
- IC70 [2]: 21,6 µM
- IC50 ([2]; substance preferably as malate salt): 16.7 µM
- IC50 (KBV-600): 5 µM
- IC50 (HT-29; Homo sapiens, HT-29, without pyruvate in the medium): 3.5 µM
- IC50 (NK1): 2 µM
- IC50 (BxPC-3; Homo sapiens, BxPC-3, with pyruvate in the medium, read-out: IC50 (XTT) mit Pyrovat): 1.3 µM
- IC50 (BxPC-3; Homo sapiens, BxPC-3, without pyruvate in the medium, read-out: IC50 ohne Pyrovat): 2 µM
- IC50 (MCF-7; Homo sapiens, MCF7, MCF-7, with pyruvate in the medium, read-out: IC50 (XTT) mit Pyrovat): 11 µM
- IC50 (MCF-7; Homo sapiens, MCF7, MCF-7, without pyruvate in the medium, read-out: IC50 ohne Pyrovat): 8 µM
- IC50 (MDA-MB-453; MDA-MB-453, with pyruvate in the medium, read-out: IC50 (XTT) mit Pyrovat): 11 µM
- IC50 (MDA-MB-453; MDA-MB-453, without pyruvate in the medium, read-out: IC50 ohne Pyrovat): 7 µM
- IC50 [3]: 4 µM
- IC70-Wert [3]: 6 µM
- IC50 (Wi-38): 11 µM

SMILES: CCN(CC)CCONC(=O)c1c(C)[nH]c(/C=C2\C(=O)Nc3ccc(F)cc32)c1C [Beispiel 2.2, N-[2-(diethylamino)ethoxy]-5-[(Z)-(5-Fluoro-1,2-dihydro-2-oxo-3H-indol-3-ylidene)methyl]-2,4-dimethyl-1H-pyrrole-3-carboxamide, (2S)-hydroxybutanedionate (1:0,5)]
- IC50 (HT-29; Homo sapiens, HT-29, HT-29, without pyruvate in the medium): 3 µM
- IC50 (BxPC-3; BxPC-3, with pyruvate in the medium, read-out: IC50 (XTT) mit Pyrovat): 2 µM
- IC50 (BxPC-3; BxPC-3, without pyruvate in the medium, read-out: IC50 ohne Pyrovat): 2 µM
- IC50 (MDA-MB-453; MDA-MB-453, MDA-MB-453, with pyruvate in the medium, read-out: IC50 (XTT) mit Pyrovat): 8 µM

SMILES: CCN(CC)CCONC(=O)c1c(C)[nH]c(/C=C2\C(=O)Nc3ccc(F)cc32)c1C [Beispiel 2.3, N-[2-(diethylamino)ethoxy]-5-[(Z)-(5-Fluoro-1,2-dihydro-2-oxo-3H-indol-3-ylidene)methyl]-2,4-dimethyl-1H-pyrrole-3-carboxamide, (2S)-hydroxybutanedionate (1:1)]
- IC50 (HT-29; HT-29, without pyruvate in the medium): 3 µM
- IC50 (NK1): 4 µM
- IC50 (MCF-7; MCF-7, with pyruvate in the medium, read-out: IC50 (XTT) mit Pyrovat): 9 µM
- IC50 (MCF-7; MCF-7, without pyruvate in the medium, read-out: IC50 ohne Pyrovat): 10 µM

SMILES: CCN(CC)CCONC(=O)c1c(C)[nH]c(/C=C2\C(=O)Nc3ccc(F)cc32)c1C [SO 272]
- IC50 (verschiedenen Zelllinien): 1 to 11 µM

- IC50 [2]: 18 µM
SMILES: CCN(CC)CCNC(=O)c1c(C)[nH]c(/C=C2\C(=O)Nc3ccc(F)cc32)c1C [SU11248, 5-[5-Fluoro-2-oxo-1,2-dihydroindol-(3Z)-ylidenemethyl]-2,4-dimethyl-1H-pyrrole-3-carboxylic Acid (2-Diethylaminoethyl)amide, reference compound]
- IC70 [2]: 26,7 µM
